Results from paper PMC9234961 (Journal of Medicinal Chemistry, 2022).
Values after ≈ are worked out from the molar mass of the structure shown. Values joined by “and” are separate entries in the source; they are usually repeats but may differ in a detail not shown here. Equal values may be shown once. Read-outs that look alike come from different tables or passages of the source.

How the values were obtained:
[1] = target: endogenous BCL6 in OCI-Ly1 cells (Homo sapiens, UniProt P41182); assay: cell-based; conditions: for degradation of BCL6 (in words): OCI-Ly1 MSD assay; for MSD degrader assay [OCI-Ly1] Dmax: mean maximal degradation of BCL6; for MSD degrader assay [OCI-LY1] pDC50 mean: mean of replicates
[2] = logD7.4 assay (Chrom log D method); format: physicochemical; conditions: pH 7.4, read-out: Measured logD7.4
Procedure: Calibration, validation and in-house compounds were prepared at 1mM in 10% DMSO / 90% Trizma solution (100mM Trizma in 75/25 methanol/water). 3 µL standard injections (with needle wash) of all calibration, validation and in-house samples were made onto a Phenomenex Luna C8 column (3µm, 100 x 4.6 mm, 100A, Phenomenex, Torrence, USA). Chromatographic separation at 30°C was carried out using […]
2 mL/min. The gradient was held at 0:100 water:organic for 0.8 minutes, then returned to the starting conditions of 95:5 water:organic for 0.2 minutes. The column was re-equilibrated for 5 minutes at the […]

[3] = target: T1, human BCL6 BTB domain (Homo sapiens, UniProt P41182); assay: biochemical
Procedure: Assays were performed in a 384-well black Proxiplate (Perkin Elmer) containing 1 nM Trx-6xHis-BCL6 (in
anti-6xHis-Terbium cryptate (CisBio Bioassays, France), in assay buffer (25 mM Hepes pH8, 100 mM NaCl,
0.05% Tween20, 0.5 mM TCEP, 0.05% bovine serum albumin). Test compounds in DMSO or DMSO alone
were added to the wells using an ECHO550 acoustic dispenser (Labcyte Inc) to give the appropriate test
concentration in 0.7% v/v DMSO final. After 2 hours incubation at room temperature the plate was read
The % inhibition at each concentration was calculated by normalising FRET ratio to the
appropriate high (DMSO with all reagents) and low (DMSO without BCL6) controls. IC50 values were
determined using GraphPad Prism 6.0 or Dotmatics (Bishops Stortford, UK) software by fitting the
normalised data to a sigmoidal four-parameter logistic fit equation.

[4] = target: T1, human BCL6 BTB domain; conditions: for BCL6 TR-FRET pIC50 mean: mean of replicates
[5] = Microsomal clearance assay (MLM); format: in vitro ADME; conditions: female, CD1, pH 7.4; mouse liver microsomes, 1 μM compound
Procedure: 6. Supplementary experimental: in vitro DMPK assays
6.1 Microsomal clearance assay
Microsomal clearance was determined in female CD1 mice, female Sprague–Dawley rats, and mixed gender human liver microsomes obtained from BioIVT (Peterborough, U.K.) following incubation of 1 μM compound at 37 °C in 0.5 mg/mL microsomal protein, 3 mmol/L MgCl2, 1 mmol/L NADPH, 2.5 mmol/L and 10 mmol/L phosphate buffer (pH 7.4) (all purchased from Sigma-Aldrich, Gillingham, U.K). Reactions were started by addition of the cofactors following 10 min preincubation of microsomes with test compound and were terminated at −1, 0, 5, 10, 15, and 30 min with three volumes of ice-cold methanol containing internal standard. Samples were centrifuged at 2800g for 30 min at 4 °C and the supernatants analyzed.
Control incubations were prepared as above with omission of cofactors. Compound measurements were […]
separation with a 3 min gradient of 0.1% formic acid in methanol on a Kinetex C18, 50 × 2.1 mm 2.6 μm UPLC column (Phenomenex, Macclesfield, UK). […]

[6] = NMR solubility assay; format: physicochemical; conditions: kinetic solubility by NMR in HEPES buffer at pH 8, 4% DMSO; read-out: Aq. Sol.
Procedure: 4. Supplementary experimental: physicochemical assays
0.5 mM TCEP, 10% D2O) was pipetted into the same well and mixed by up-down pipetting 3 times to create […]
It was then separated by centrifugation (1000 rpm
The plate was then sealed and incubated at room temperature for 20 hours, […]
165 µL of the supernatant was transferred to a 3 mm NMR tube (Bruker, Part No. Z112272) using liquid handler SamplePro Tube SJ S (Bruker). The concentration of the solubilized compound in solubility sample is measured by quantitative 1H-NMR using a single external standard (200 µM caffeine (Sigma, C1778) in PBS (pH 7.4) with 1% DMSO-d6).
The detail of the NMR method is as following: NMR data was collected on a Bruker Avance Neo 600 spectrometer equipped with a 5 mm TCI-CryoProbe. The 1H spectrum was referenced to the internal deuterated solvent. The operating frequency for 1H was 600 MHz. All NMR data were acquired at the […]
1H-NMR spectrum was acquired using a Bruker standard 1D lc1pngppsf2 pulse sequence with 32 scans.
The sweep width was 6.2 ppm with O1P set to 8.8 ppm, and the FID contained 16k time-domain data points. Relaxation delay was set to 20 sec. Water signal was suppressed. […]

[7] = OCI-Ly1, read-out: MSD degrader assay [OCI-LY1] Dmax individual replicates, single replicate values
[8] = OCI-Ly1, read-out: MSD degrader assay [OCI-Ly1] Dmax, mean maximal degradation of BCL6, OCI-Ly1 cells, 2 h
[9] = read-out: MSD degrader assay [OCI-LY1] DC50 individual replicates, single replicate values
[10] = read-out: MSD degrader assay [OCI-Ly1] DC50, geometric mean, OCI-Ly1 cells, 2 h incubation
[11] = reversed-phase HPLC on Phenomenex Luna C8 column
[12] = BCL6 TR-FRET IC50 individual replicates, single replicate values
[13] = read-out: BCL6 TR-FRET IC50, geometric mean, BCOR-AF633 peptide, 2 h incubation
[14] = read-out: BCL6 TR-FRET IC50 individual replicates, single replicate values
[15] = BCL6 TR-FRET pIC50 mean, mean of replicates

C[C@@H]1C[C@@H](O)CN(c2ncc(Cl)c(Nc3ccc4c(c3)c3c(c(=O)n4C)OCC(F)(F)[C@H](C4CC4)N3)n2)C1 [13a, (S)-10-((5-Chloro-2-((3R,5R)-3-hydroxy-5-methylpiperidin-1-yl)pyrimidin-4-yl)amino)-2-cyclopropyl-3,3-difluoro-7-methyl-1,2,3,4-tetrahydro-[1,4]oxazepino[2,3-c]quinolin-6(7H)-one]
Dmax [1, 7]: < 30% | Dmax [1, 8]: < 30% | degradation of BCL6 (in words) [1]: nondegraders of BCL6 | MSD degrader assay [OCI-Ly1] Dmax ([1]; OCI-Ly1 cells, 2 h): > 30% | DC50 [1, 9]: > 2000 nM | DC50 [1, 10]: > 2000 nM | chromatographic logD [2, 11]: 3 | IC50 [3, 12]: 11.4 nM and 8.6 nM | BCL6 TR-FRET pIC50 mean [4]: 8.0053 | IC50 [4, 13]: 9.9 nM | IC50 [4, 14]: 9.9 nM | microsomal CLint at 0.5 h, 1 µM [5]: 78 µL/min/mg

C[C@@H]1CCCN(c2ncc(Cl)c(Nc3ccc4c(c3)c3c(c(=O)n4C)OCC(F)(F)[C@H](C4CC4)N3)n2)C1 [15b, (S)-10-((5-Chloro-2-((R)-3-methylpiperidin-1-yl)pyrimidin-4-yl)amino)-2-cyclopropyl-3,3-difluoro-7-methyl-1,2,3,4-tetrahydro-[1,4]oxazepino[2,3-c]quinolin-6(7H)-one]
Dmax [1, 7]: 73.4% | Dmax [1, 8]: 72.1% | degradation of BCL6 (in words) [1]: degraders of BCL6 | MSD degrader assay [OCI-Ly1] Dmax ([1]; OCI-Ly1 cells, 2 h): 72% | MSD degrader assay [OCI-LY1] pDC50 mean [1]: 7.4874 | DC50 [1, 9]: 19.4 nM and 39.6 nM and 44.8 nM | DC50 [1, 10]: 32.6 nM | MSD degrader assay [OCI-LY1] Dmax individual replicates ([1]; single replicate values): 70.6% and 72.2% | chromatographic logD [2, 11]: 5 | IC50 [3, 12]: 27.6 nM and 22.6 nM | solubility kinetic at 20 h [6]: 0 µM | BCL6 TR-FRET pIC50 mean [4]: 7.6089 | IC50 [4, 13]: 24.6 nM | IC50 [4, 14]: 23.8 nM | microsomal CLint at 0.5 h, 1 µM [5]: 204 µL/min/mg

Cn1c(=O)c2c(c3cc(Nc4nc(N5CCC[C@@H](O)C5)ncc4Cl)ccc31)N[C@@H](C1CC1)C(F)(F)CO2 [14a, (S)-10-((5-chloro-2-((R)-3-hydroxypiperidin-1-yl)pyrimidin-4-yl)amino)-2-cyclopropyl-3,3-difluoro-7-methyl-1,2,3,4-tetrahydro-[1,4]oxazepino[2,3-c]quinolin-6(7H)-one]
Dmax [1, 7]: 34.9% | Dmax [1, 8]: 34.9% | MSD degrader assay [OCI-Ly1] Dmax ([1]; OCI-Ly1 cells, 2 h): 35% | DC50 [1, 9]: > 2000 nM | DC50 [1, 10]: > 2000 nM | chromatographic logD [2]: 2.7 | IC50 [3, 12]: 1.7 nM and 2.4 nM | IC50 [3, 15]: 2.46 nM | solubility kinetic at 20 h [6]: 25 µM (≈ 13.3 µg/mL) | IC50 [4, 13]: 3 nM | IC50 [4, 14]: 3.1 nM | microsomal CLint at 0.5 h, 1 µM [5]: 88 µL/min/mg

Cn1c(=O)n(CCC(C)(C)O)c2cc(Nc3nc(N4CCC(F)(F)C(CO)C4)ncc3Cl)ccc21 (stereo not shown) [compound 4, 5-((5-Chloro-2-(4,4-difluoro-3-(hydroxymethyl)piperidin-1-yl)pyrimidin-4-yl)amino)-3-(3-hydroxy-3-methylbutyl)-1-methyl-1,3-dihydro-2H-benzo[d]imidazol-2-one]
chromatographic logD [2, 11]: 2.5 | solubility kinetic at 20 h [6]: 294 µM (≈ 150 µg/mL)

CC(=O)N[C@@H]1C[C@H](C)CN(c2ncc(Cl)c(Nc3ccc4c(c3)c3c(c(=O)n4C)OCC(F)(F)[C@H](C4CC4)N3)n2)C1 [10a, N-((3R,5S)-1-(5-Chloro-4-(((S)-2-cyclopropyl-3,3-difluoro-7-methyl-6-oxo-1,2,3,4,6,7-hexahydro-[1,4]oxazepino[2,3-c]quinolin-10-yl)amino)pyrimidin-2-yl)-5-methylpiperidin-3-yl)acetamide]
Dmax [1, 7]: 72.4% | degradation of BCL6 (in words) [1]: potently degrading isomer | MSD degrader assay [OCI-Ly1] Dmax ([1]; OCI-Ly1 cells, 2 h): 67% | MSD degrader assay [OCI-LY1] pDC50 mean [1]: 8.6565 | DC50 [1, 9]: 1.7 nM and 2.8 nM | DC50 [1, 10]: 2.2 nM | MSD degrader assay [OCI-LY1] Dmax individual replicates ([1]; single replicate values): 61.63% | chromatographic logD [2, 11]: 2.8 | IC50 [3, 12]: 3.4 nM and 4.4 nM and 3.2 nM | solubility kinetic at 20 h [6]: 15 µM (≈ 8.82 µg/mL) | BCL6 TR-FRET pIC50 mean [4]: 8.4394 | IC50 [4, 13]: 3.6 nM | microsomal CLint at 0.5 h, 1 µM [5]: 138 µL/min/mg

Cn1c(=O)n(CCC(C)(C)O)c2cc(Nc3nc(N4CCC(F)(F)C(O)C4)ncc3Cl)ccc21 (stereo not shown) [compound 3, 5-((5-Chloro-2-(4,4-difluoro-3-hydroxypiperidin-1-yl)pyrimidin-4-yl)amino)-3-(3-hydroxy-3-methylbutyl)-1-methyl-1,3-dihydro-2H-benzo[d]imidazol-2-one]
Dmax [1, 7]: 81% | Dmax [1, 8]: 77.5% | MSD degrader assay [OCI-Ly1] Dmax ([1]; OCI-Ly1 cells, 2 h): 78% | MSD degrader assay [OCI-LY1] pDC50 mean [1]: 6.5593 | DC50 [1, 9]: 246 nM and 310 nM | DC50 [1, 10]: 276 nM | MSD degrader assay [OCI-LY1] Dmax individual replicates ([1]; single replicate values): 74.1% | chromatographic logD [2, 11]: 2.3 | solubility kinetic at 20 h [6]: 11 µM (≈ 5.47 µg/mL) | BCL6 TR-FRET pIC50 mean [4]: 6.6241 | IC50 [4, 13]: 238 nM | IC50 [4, 14]: 227 nM and 247 nM and 239 nM | microsomal CLint at 0.5 h, 1 µM [5]: 35 µL/min/mg

Cn1c(=O)c2c(c3cc(Nc4nc(N5CCC[C@H](O)C5)ncc4Cl)ccc31)N[C@@H](C1CC1)C(F)(F)CO2 [14b, (S)-10-((5-chloro-2-((S)-3-hydroxypiperidin-1-yl)pyrimidin-4-yl)amino)-2-cyclopropyl-3,3-difluoro-7-methyl-1,2,3,4-tetrahydro-[1,4]oxazepino[2,3-c]quinolin-6(7H)-one]
Dmax [1, 7]: < 30% | Dmax [1, 8]: < 30% | degradation of BCL6 (in words) [1]: none was seen | MSD degrader assay [OCI-Ly1] Dmax ([1]; OCI-Ly1 cells, 2 h): > 30% | DC50 [1, 9]: > 2000 nM | DC50 [1, 10]: > 2000 nM | IC50 ([3]; BCL6 TR-FRET IC50, geometric mean, BCOR-AF633 peptide, 2 h incubation): 3 nM | IC50 [3, 12]: 3.1 nM (2×) and 3.2 nM and 2.9 nM | IC50 [3, 15]: 2.98 nM | solubility kinetic at 20 h [6]: 23 µM (≈ 12.3 µg/mL) | IC50 [4, 13]: 2.5 nM | IC50 [4, 14]: 2.6 nM | microsomal CLint at 0.5 h, 1 µM [5]: 139 µL/min/mg

Cn1c(=O)c2c(c3cc(Nc4nc(N5CCC(F)(F)[C@H](O)C5)ncc4Cl)ccc31)N[C@@H](C1CC1)C(F)(F)CO2 (single isomer, unassigned) [8b]
Dmax [1, 7]: < 30% | Dmax [1, 8]: < 30% | degradation of BCL6 (in words) [1]: nondegrading isomer | MSD degrader assay [OCI-Ly1] Dmax ([1]; OCI-Ly1 cells, 2 h): > 30% | DC50 [1, 9]: > 2000 nM | DC50 [1, 10]: > 2000 nM | chromatographic logD [2, 11]: 3 | solubility kinetic at 20 h [6]: 13 µM (≈ 7.4 µg/mL) | BCL6 TR-FRET pIC50 mean [4]: 8.3342 | IC50 [4, 13]: 4.6 nM | IC50 [4, 14]: 4.8 nM and 4.7 nM and 4.4 nM | microsomal CLint at 0.5 h, 1 µM [5]: 22 µL/min/mg

C[C@H]1C[C@H](O)CN(c2ncc(Cl)c(Nc3ccc4c(c3)c3c(c(=O)n4C)OCC(F)(F)[C@H](C4CC4)N3)n2)C1 [13b, (S)-10-((5-Chloro-2-((3S,5S)-3-hydroxy-5-methylpiperidin-1-yl)pyrimidin-4-yl)amino)-2-cyclopropyl-3,3-difluoro-7-methyl-1,2,3,4-tetrahydro-[1,4]oxazepino[2,3-c]quinolin-6(7H)-one]
Dmax [1, 7]: < 30% | Dmax [1, 8]: < 30% | degradation of BCL6 (in words) [1]: nondegraders of BCL6 | MSD degrader assay [OCI-Ly1] Dmax ([1]; OCI-Ly1 cells, 2 h): > 30% | DC50 [1, 9]: > 2000 nM | DC50 [1, 10]: > 2000 nM | chromatographic logD [2, 11]: 3.1 | IC50 [3, 12]: 4.9 nM and 6.4 nM and 6.8 nM | BCL6 TR-FRET pIC50 mean [4]: 8.2236 | IC50 [4, 13]: 6 nM | microsomal CLint at 0.5 h, 1 µM [5]: 446 µL/min/mg
